Assays:
[1] = tested on: Hela cervical cancer cell line; experiment: In vitro proliferation inhibition of Hela cervical cancer cell line (MTT method); format: cell-based; details: Homo sapiens; Hela cervical cancer cell line, 48 hours drug exposure; read-out: IC50
Protocol: Evaluation of In Vitro Antitumor Activity of Hela Cervical Cancer Tumor Cell Lines with Compounds (MTT Method)
The cells were cultured in RPMI1640 medium containing 200 mL/L fetal bovine serum so that the cells were kept at logarithmic growth. The cells were inoculated to 96-well plate, with a density of 4˜8×10^4/ml, 37° C., and pre-cultured for 24 hours with added drugs. The drugs were set at 6 concentrations, each has 3 holes. After 48 hours of consequent effect, the nutrient solution was then removed and the cells were left for air-drying. Each hole was then added with cold 500 g/L trichloroacetic acid (TCA) 50 μL (final concentration of 100 g/L). After setting for 60 minutes, it was then rinsed for 4-5 times with ionized water and dried. Each hole then was added with 4 g/L SRB 100 μL left for 30 mins. Then it was rinsed with 10 mL/L acetic acid for 4 times, dried. Then 10 mmol Tris-base 200 μL per hole was added, then shaked and mixed, subsequently, oscillating on the plate oscillator for 5 min. The enzyme-linked immunoassay was used to determine the A value. To calibrate, a blank control was used, with a wavelength of 490 nm. Tumor inhibition rate (%)=(Average A value of the control cell hole−Average A value of the drugged hole A)/Average A value of the control cell hole×100%. The positive control cell holes were CA4, CB1, and CB1N. To calculate the IC50 value, the Logit method was used according to the cell growth inhibition rate of different concentrations of the drug.

[2] = tested on: human gastric cancer cell MGC-803; experiment: In vitro antitumor activity on tumor cell lines (CCK-8 method), MGC-803; format: cell-based; details: Homo sapiens, MGC-803, 72 hours
Protocol: (§1) Evaluation of In Vitro Antitumor Activity of Compounds on Multiple Tumor Cell Lines (CCK-8 Method)
(§2) Take the living cells with more than 90% cells for testing. The cell proliferation inhibition test was performed using the EnoGeneCell™ Counting Kit-8 (CK-8) cell viability test kit. The cell was digested, counted and prepared into a cell suspension with a concentration of 1×10^5/mL. 100 μL cell suspension (1×10^4 cells per hole) was added to each hole in the 96-well plate. The 96-well plate was cultured in a 37° C., 5% CO2 incubator for 24 hours. With every hole added with 100 μL respective drugged cultured medium, control groups were set up, including negative control group, solvent control group, and positive control group. Each group has 5 holes. The 96-well plates were cultured at 37° C., in 5% CO2 incubator for 72 hours. Afterward, 10 μL CCK-8 solution was added to each hole, and the culture plate was incubated in the incubator for 4 hours, and the OD value at 450 nm was determined by enzyme labeling instrument. The inhibition rate and IC50 value of these compounds on tumor cells such as human gastric cancer cell MGC-803, human liver cancer cell HepG2, human lung cancer cell A549 and human breast cancer cell MDA-MB-231 were calculated.

[3] = tested on: human liver cancer cell HepG2; experiment: In vitro antitumor activity on tumor cell lines (CCK-8 method), HepG2; format: cell-based; details: Homo sapiens, HepG2, 72 hours
Protocol: as §1, §2

[4] = tested on: human lung cancer cell A549; experiment: In vitro antitumor activity on tumor cell lines (CCK-8 method), A549; format: cell-based; details: Homo sapiens, A549, 72 hours
Protocol: as §1, §2

[5] = tested on: human breast cancer cell MDA-MB-231; experiment: In vitro antitumor activity on tumor cell lines (CCK-8 method), MDA-MB-231; format: cell-based; details: Homo sapiens, MDA-MB-231, 72 hours
Protocol: as §1, §2

[6] = tested on: gastric cancer MGC-803 transplanted tumor; experiment: Antitumor rate of oral administration in mice with MGC-803 transplanted tumor; format: in vivo; details: for Tumor inhibition rate (%): d0-d12 every 2 days, 7 times, tumor weight
Protocol: Antitumor rate of oral administration of the compound towards MGC-803 mice with transplanted tumor
After 1 week of adaptation, the mice were inoculated with gastric cancer MGC-803 tumor tissue subcutaneously. After the tumor grew for 100-300 mm^3, the animals were randomly grouped. For the drug group, each group of each compound had 6 mice, and 12 mice were in the control group. The intragastric administration was employed and the dosage of Ii, Ij, Ik and Il was 25 and 50 mg/kg. The positive control was CA4, the administration time was d0, d2, d4, d6, d8, d10, d12 days, 7 times in total. The tumor size was measured 3 times per week, together with mice weight. The mice were executed 14 days after inoculation and the tumor mass was taken and measured for its weight. The tumor inhibition rate was calculated as tumor weight inhibition rate, and the formula is tumor weight inhibition rate %=(1-treatment group average tumor weight/control group average tumor weight)×100%.

in vivo = details: both, Kunming, mouse, po
Protocol: (§3) Acute Toxicity Test of Single Gastric Administration in Mice
(§4) Kunming mice (weight 17-22 g, equal male and female) were randomly grouped according to body weight, with 10 mice maximum per dose group in the experiment. […] Given by single intraperitoneal injection and a single intragastric injection, observations were done after 0.25 h, 0.5 h, 1 h, 2 h, 4 h, and 24 h respectively. The mortality rate was recorded. Afterward, the groups were observed once everyday, and the mortality rate was recorded for 14 days. On day 15, the living mice were sacrificed for pathological dissection.

[7] = single intragastric administration, mice
Protocol: as §3, §4

## COc1ccc(CCc2cc(OC)c(OC)c(OC)c2)cc1OC(=O)CCn1cc(F)c(=O)[nH]c1=O [Compound Il, 5-(3,4,5-trimethoxyphenethyl)-2-methoxyphenyl-3-(5-fluoro-2,4-dioxo-3,4-dihydropyrimidin-1(2H)-yl)propanoate]
[1]
  IC50: 29.6 nM
[2]
  IC50: < 0.3 nM
[3]
  IC50: 0.4 nM
[4]
  IC50: < 0.3 nM
[5]
  IC50: 0.25 nM
[6]; 25 mg/kg intragastric
  Tumor inhibition rate (%): 65%
[6]; 50 mg/kg intragastric
  Tumor inhibition rate (%): 90%
[6]; about 8 days after administration
  tumor size course: tendency to shrink
In vivo
  LD50 at 14 days: > 1000 mg/kg
[7]
  LD50: 1228 mg/kg
